Laboratory results from BindingDB's records for doi:10.1021/jm300377g (University of Lille, 2012).
pEC50: −log10 of the molar value.

Assay: Inhibition of EthR in Mycobacterium tuberculosis H37Rv-GFP infected in mouse Raw 264.7 cells assessed as compound concentration allowing 0.1 uM ethionamide to inhibit 50% microbial growth by automated fluorescent confocal microscopy

| Compound | pEC50 |
| --- | --- |
| COc1cccc(SCC(=O)Nc2ccc(-c3nc4ccccc4s3)cc2)c1 | < 5.00 |
| COc1cccc(OCC(=O)Nc2ccc(Cl)cc2)c1 | 5.80 |
| Cc1ccc2cc(NC(=O)COc3ccccc3F)ccc2n1 | 5.66 |
| N#Cc1cccc(OCC(=O)Nc2ccc(-c3nc4ccccc4s3)cc2)c1 | 6.47 |
| COc1cccc(OCC(=O)Nc2ccc(-c3nc4ccccc4s3)cc2)c1 | 6.68 |
| Cc1ccc(-n2nc3ccc(NC(=O)COc4ccccc4C)cc3n2)cc1 | < 5.00 |
